# In paper PMC9607104, “Switching the N-Capping Region from all-L to all-D Amino Acids in a VEGF Mimetic Helical Peptide” (Molecules, 2022):
# Square brackets hold non-standard residues; d marks the D form. Peptide text beside a SMILES is read from it.
# Experiment: Peptide stability in 50% human serum (RP-HPLC time course)
# Type: in vitro ADME
# Conditions: 50% aqueous human serum, 37 °C, time points 0, 30 (35), 120 min, RP-HPLC peak area at 220 nm, triplicate
# Experimental: D-amino acids are more resistant to protease degradation. In order to verify the effect of D-amino acid replacement on QK stability in serum, we performed a time-course analysis. Peptides were incubated with 50% diluted human serum and analyzed by RP-HPLC at three different times (0′, 35′ and 120′). The area of the chromatographic peak corresponding to the entire peptide was determined (Figure 6). Overall, peptide QK presents fairly good stability in 50% serum, as almost the 50% is still present after […] of incubation.
# Figure 6 Analysis of peptide stability in 50% human serum. […] Data are reported as means of a triplicate experiment.
# Briefly, 20 µL of peptide (10 mg/mL stock solution in H2O) were added to 200 µL of 50% aqueous solution of human serum (Sigma-Aldrich) (previously centrifuged at 10,000 rpm for 10 min at 4 °C) and the mixture was incubated at 37 °C. At each time point (0, 30, 120 min), an aliquot of 6 µL was diluted in a ten times volume of H2O and analyzed by RP-HPLC on an Atlantis C18-column (Waters, 5 µm, 4.6 mm × 150 mm) using a linear aqueous acetonitrile gradient containing TFA (0.1%, v/v). Initial condition 5% B, 5−5% B in 5 min, 5−40% B in 27 min, 40−100% B in 5 min, and flow rate 1 mL/min (B = acetonitrile 0.1% TFA). Peptides were detected by recording the absorbance at 220 nm and quantified by their peak areas relative to the initial peak areas (0 min). […]
smiles,measurement,value
"CC[C@H](C)[C@H](NC(=O)CNC(=O)[C@H](CCCCN)NC(=O)[C@H](Cc1ccc(O)cc1)NC(=O)[C@H](CCCCN)NC(=O)[C@H](CC(C)C)NC(=O)[C@H](CCC(N)=O)NC(=O)[C@H](Cc1ccc(O)cc1)NC(=O)[C@H](CC(C)C)NC(=O)[C@H](CCC(=O)O)NC(=O)[C@H](CCC(N)=O)NC(=O)[C@H](Cc1c[nH]c2ccccc12)NC(=O)[C@H](NC(=O)[C@@H](CC(C)C)NC(=O)[C@@H](CCCCN)NC(C)=O)[C@H](C)O)C(N)=O [D-QK, Ac-^DLys-^DLeu-^DThr-Trp-Gln-Glu-Leu-Tyr-Gln-Leu-Lys-Tyr-Lys-Gly-Ile-NH2] (Ac-[dK][dL][dT]WQELYQLKYKGI-NH2)",effect of the N-terminal D-amino acids on stability in human serum (versus QK),unaffected
